Reference: patent publication US20130197073A1, “HYPOCHOLESTEROLEMIC, ANTI-INFLAMMATORY AND ANTIEPILEPTIC NEUROPROTECTIVE COMPOUND” (NEURON BIOPHARMA, S.A., priority 2010, published 2013)

Columns and labels:
[1] = test system: zebrafish (Danio rerio, AB strain) embryos; assay: Zebrafish embryo acute toxicity, mortality (OECD C.15); type: in vivo; settings: for Mortality (dead larvae with respect to the total): 3 days
Protocol: 30 control animals treated with dilution water and with daily replacement until the end of the assay.
30 animals treated with compound NST0060 (3 embryos for every ten replicates) diluted in dilution water at doses between 1 and 100 mg/Kg and with daily replacement of the substance during the days that the assay lasted.
After the time of exposure to the substances under study, the mortality record of the larvae was determined, results being shown in Table 2.

[2] = test system: human neuroblastoma SK-N-MC cells; assay: Protection against neuronal death induced by oxidative stress (xanthine/xanthine oxidase), WST-1; type: cell-based; settings: NST0060 at 10 μM; 10 μM xanthine/60 mU/mL xanthine oxidase, 22 hours; protection significant from 1 to 40 μM
Protocol: (§1) The assay was performed on human neuroblastoma SK-N-MC cells in culture from the American Type Culture Collection (ATCC), in all cases strict rules of sterility were followed and the manipulation was performed in class II biological safety cabinets following European standard EN 12469. The cells were maintained in the following culture medium: Minimum Essential Medium Eagle (MEM) supplemented with 1 mM sodium pyruvate, 2 mM L-glutamine, 0.1 mM non-essential amino acids, 0.05 mg/ml gentamicin and 10% fetal bovine serum.
The inhibition caused by compound NST0060 with respect to cell death caused by treatment with xanthine/xanthine oxidase which generates oxidative damage (produces free radicals such as hydrogen peroxide, superoxide anion, hydroxyl radical), which triggers cell death, was analyzed. These cells, not exceeding 15 passages, were seeded on 96-well plates treated for adherent cells with a cell concentration of 5×10^4 cells/well; 3 wells of the plate were seeded for each assay condition. […]
The cells were incubated (at 37° C. and 5% CO2) with these treatments for 22 hours, after which time WST-1 reagent (Roche) was added. […] The formazan which is formed can be detected colorimetrically since it has an absorbance of 440 nm. The reading was taken in a plate reader at 440 nm 2 hours after adding the reagent.

caspase 3/7 = assay: Inhibition of activation of caspase 3/7 in camptothecin cell model of apoptosis; type: cell-based, human; settings: Homo sapiens, 50 μM CPT 6 hours, read-out: inhibition of caspase 3/7 with respect to camptothecin
Protocol: The assay was performed on human neuroblastoma SK-N-MC cells in culture, maintained as described in section 2.1.
The induction of apoptosis on the cells in culture was performed with camptothecin (CPT), which triggers the activation of cell apoptosis. Apoptosis was quantified by means of the measurement of the activation of effector caspases, caspase 3 or caspase 7, for which a kit for the fluorometric detection of active caspase 3/7 (Apo-ONE® Homogeneous Caspase-3/7, Promega) was used. Active caspases 3 or 7 of the cells cause the rupture of a substrate, which leads to fluorescence emission, which is read by means of a fluorometer. The effect of the pretreatment of compound NST0060 at 10 and 40 μM on the activation of caspase 3/7 produced by 50 μM of camptothecin (CPT) in the SK-N-MC cells was thus analyzed. These cells, not exceeding 15 passages, were seeded on 96-well plates treated for adherent cells with a cell concentration of 5×10^4 cells/well; 3 wells of the plate were seeded for each assay condition.
After 24 hours of cell incubation (at 37° C. and 5% CO2), the pretreatment with NST0060 at 10 and 40 μM was performed.
The cells were incubated (at 37° C. and 5% CO2) with these treatments for 6 hours, after which cell lysis buffer and the caspase substrate at the concentrations specified by the manufacturer were added; it was incubated at room temperature for 30 minutes and then frozen at −20° C. overnight. Fluorescence was measured the next day (499/521 nm, Exci/Emi).

in vitro = settings: PAMPA, pH 7.4
Source text: To that end, the BBB was mimicked in an in vitro system that allowed evaluating the compound without using cells, and where the so-called PAMPA (Parallel Artificial Membrane Permeation Assay) was used, using a sandwich system considering the crossing of compounds by means of passive diffusion.
A mixture of marketed lipids derived from pig brain with a phospholipid composition very similar to that which forms the barrier and known as PBL (Porcine Polar Brain Lipid) was used to mimic the blood-brain barrier. This compound was stored at −20° C. dissolved in dodecane at 100 μg/ml in glass vials.
To that end, a 1/100 dilution of the compounds was performed, being the DMSO content in all cases 1%.
Five microliters of PBL at 20 μg/ml prepared from the frozen stock at 100 μg/mL were added in a 96-well filter plate, with a PVDF membrane and a pore size of 45 μm (MAIPN4550, Millipore). After 2 minutes, 300 μl of the phosphate buffer used to dilute the compounds were added. […] After that time, 100 μl from the wells of the donor plates and acceptor plates were transferred to a special 96-well plate for UV reading. […] The percentage of barrier crossing as well as the effective permeability (Pe) were calculated from the spectrophotometric data. […]
[Drug]acceptor=Absorbance of the acceptor well
[Drug]equilibrium=Absorbance of the mean of the basal wells/2 […]

seladin-1/DHCR24 gene = assay: Induction of seladin-1/DHCR24 gene expression, quantitative RT-PCR; type: cell-based, human; settings: 4 μM, 24 hours, GAPDH-normalized; increase at all tested concentrations (1, 4, 10, 40 μM)
Protocol: as §1
Real-time quantitative RT-PCR was used to analyze the expression of the seladin-1/DHCR24 gene. The SK-N-MC cells were treated for 24 hours in the absence (control) or presence of NST0060 at 1, 4, 10 or 40 μM. The total RNA was extracted by means of the High Pure RNA Isolation kit (Roche) and the RNA amount and quality were analyzed by means of spectrophotometry in the Infinite 200 NanoQuant system (Tecan). The RT-PCR was performed by means of two steps, first, the mRNA was transformed to cDNA using the RNA to cDNA kit (Applied Biosystem) and the gene expression was subsequently analyzed by means of TaqMan probes using the validated probes Hs00207388_m1 for seladin-1/DHCR24 and Hs99999905_m1 for GAPDH (used to normalize the results), both of which are human-specific, in the 7500 Fast Real-Time PCR System equipment (Applied Biosystem). […]

CCCC(CCC)C(=O)O[C@H]1C[C@@H](C)C=C2C=C[C@H](C)[C@H](CC[C@@H]3C[C@@H](O)CC(=O)O3)[C@H]21 [NST0060, 2-propylpentanoic acid (1S,3R,7S,8S,8aR)-1,2,3,7,8,8a-hexahydro-3,7-dimethyl-8-[2-[(2R,4R)-tetrahydro-4-hydroxy-6-oxo-2H-pyran-2-yl]ethyl]-1-naphthalenyl ester]
Mortality (dead larvae with respect to the total) ([1]; Dose 1 mg/kg): 0/30 | Mortality (dead larvae with respect to the total) ([1]; Dose 3 mg/kg): 0/30 | Mortality (dead larvae with respect to the total) ([1]; Dose 10 mg/kg): 7/30 | Mortality (dead larvae with respect to the total) ([1]; Dose 30 mg/kg): 30/30 | Mortality (dead larvae with respect to the total) ([1]; Dose 100 mg/kg): 30/30 | deaths out of 30 animals ([1]; dose of 10 mg/Kg, 72 h): 7 | maximum protection against cell death caused by XXO [2]: 80% | inhibition at 10 µM (caspase 3/7; pretreatment 24 h at 10 μM): 58% | inhibition at 40 µM (caspase 3/7; pretreatment 24 h at 40 μM): 32% | Papp at 18 h, 100 μM (in vitro): 8.8 ± 1.2 ×10⁻⁶ cm/s | increase of seladin-1/DHCR24 gene expression with respect to the control (seladin-1/DHCR24 gene): 2.5 fold
